The values below come from ChEMBL document CHEMBL3826948, “Alkyl substituted aminal derivatives of HCV NS5A inhibitor MK-8742” (Bioorg Med Chem Lett, 2016).

The nature of data set [1]: AUC in Sprague-Dawley rat at 10 mg/kg, po. The class given is ADME, organism-based. As to conditions: in vivo.
Data set [2] can be described thus: Inhibition of NS5A in HCV genotype 2a assessed as replicon RNA levels by real time PCR based cell based assay. More on the design: species or system Hepatitis C virus subtype 2a. As to conditions: Hepatitis C virus. Background: In antiviral work, replicon cells carry a viral genome segment that copies itself.
The nature of data set [3]: Cmax in Sprague-Dawley rat at 10 mg/kg, po. The class given is ADME, organism-based. More on the design: dose 10 mg/kg, route oral. The conditions noted are these: in vivo.
Data set [4] can be described thus: Inhibition of NS5A in HCV genotype 2b assessed as replicon RNA levels by real time PCR based cell based assay. More on the design: species or system Hepatitis C virus subtype 2b. As to conditions: Hepatitis C virus.
Data set [5] in a line: Oral bioavailability in Sprague-Dawley rat at 10 mg/kg. It counts as ADME, organism-based. As to conditions: in vivo.
The nature of data set [6]: Inhibition of NS5A in HCV genotype 4a assessed as replicon RNA levels by real time PCR based cell based assay. More on the design: species or system Hepatitis C virus subtype 4a. As to conditions: Hepatitis C virus.
The nature of data set [7]: Clearance in Sprague-Dawley rat at 10 mg/kg po or 2 mg/kg iv. It counts as ADME, organism-based. As to conditions: in vivo.
Data set [8] is described as follows: Inhibition of NS5A in HCV genotype 3a assessed as replicon RNA levels by real time PCR based cell based assay. More on the design: species or system Hepatitis C virus subtype 3a. The conditions noted are these: Hepatitis C virus.
Data set [9] in a line: Half life in Sprague-Dawley rat at 10 mg/kg po or 2 mg/kg iv. The conditions noted are these: in vivo. The class given is ADME, organism-based.
Data set [10] can be described thus: Inhibition of NS5A in HCV genotype 1a assessed as replicon RNA levels by real time PCR based cell based assay. More on the design: species or system Hepatitis C virus subtype 1a. The conditions noted are these: Hepatitis C virus.
The nature of data set [11]: Inhibition of NS5A in HCV genotype 1b assessed as replicon RNA levels by real time PCR based cell based assay. More on the design: species or system Hepatitis C virus subtype 1b. As to conditions: Hepatitis C virus.
Data set [12] is described as follows: Cmax in Sprague-Dawley rat at 5 mg/kg, po. The conditions noted are these: in vivo. More on the design: dose 5 mg/kg, route oral. It counts as ADME, organism-based.
The nature of data set [13]: Clearance in Sprague-Dawley rat at 5 mg/kg po or 2 mg/kg iv. The class given is ADME, organism-based. As to conditions: in vivo.
A short description of data set [14]: AUC in Sprague-Dawley rat at 5 mg/kg, po. The conditions noted are these: in vivo. The class given is ADME, organism-based.
Data set [15] can be described thus: Oral bioavailability in Sprague-Dawley rat at 5 mg/kg. The class given is ADME, organism-based. As to conditions: in vivo.
A short description of data set [16]: Half life in Sprague-Dawley rat at 5 mg/kg po or 2 mg/kg iv. The class given is ADME, organism-based. The conditions noted are these: in vivo.
The nature of data set [17]: Inhibition of NS5A in HCV genotype 3a. More on the design: species or system Hepatitis C virus subtype 3a.
Data set [18] in a line: Inhibition of NS5A in HCV genotype 2b. More on the design: species or system Hepatitis C virus subtype 2b.
A short description of data set [19]: Inhibition of NS5A in HCV genotype 1a. More on the design: species or system Hepatitis C virus subtype 1a.
Data set [20] is described as follows: Inhibition of NS5A in HCV genotype 4a. More on the design: species or system Hepatitis C virus subtype 4a.
The nature of data set [21]: Inhibition of NS5A in HCV genotype 2a. More on the design: species or system Hepatitis C virus subtype 2a.
Data set [22] deals with Nonstructural protein 5A (Hepatitis C virus, UniProt Q5L478, L31V). As to the kind of experiment: Inhibition of NS5A in HCV genotype 1a L31V mutant. More on the design: species or system Hepatitis C virus subtype 1a.
Data set [23] has as its target Nonstructural protein 5A (Hepatitis C virus, UniProt Q5L478, Y93H). As to the kind of experiment: Inhibition of NS5A in HCV genotype 1a Y93H mutant. More on the design: species or system Hepatitis C virus subtype 1a.
The nature of data set [24]: Inhibition of NS5A in HCV genotype 1b. More on the design: species or system Hepatitis C virus subtype 1b.

In general, AUC refers to the area under the concentration-time curve, a measure of exposure. Low values mean low exposure, high ones high exposure. Broadly, the EC50 is the midpoint of the concentration-response curve. For orientation: Cmax means the maximum level reached in the sampled fluid or tissue. Broadly, the bioavailability is the share of a dose that reaches the circulation, judged against a reference dose that is usually intravenous. Lower therefore signals poor availability. The term half-life denotes the time in which the quantity being followed falls by half. A higher half-life goes with slow loss.

Nonstructural protein 5A (Hepatitis C virus, UniProt Q5L478, Y93H), sequence (Q5L478 entry or part of it Y93H): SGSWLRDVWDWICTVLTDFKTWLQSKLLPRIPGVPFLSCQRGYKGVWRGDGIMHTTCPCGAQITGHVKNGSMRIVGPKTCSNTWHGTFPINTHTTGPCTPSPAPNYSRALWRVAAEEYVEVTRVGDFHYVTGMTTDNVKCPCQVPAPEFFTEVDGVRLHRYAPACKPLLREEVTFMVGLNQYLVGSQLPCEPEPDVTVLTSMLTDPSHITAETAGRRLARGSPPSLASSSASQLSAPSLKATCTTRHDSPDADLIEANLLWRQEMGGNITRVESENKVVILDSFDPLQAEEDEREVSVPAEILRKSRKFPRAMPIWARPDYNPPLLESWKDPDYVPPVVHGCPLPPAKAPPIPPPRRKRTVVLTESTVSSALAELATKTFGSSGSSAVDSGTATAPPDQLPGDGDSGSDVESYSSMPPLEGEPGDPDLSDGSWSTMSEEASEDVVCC

The compound `COC(=O)N[C@H](C(=O)N1CCC[C@H]1c1ncc(-c2ccc3c(c2)OC(C)n2c-3cc3cc(-c4cnc([C@@H]5CCCN5C(=O)[C@@H](NC(=O)OC)C(C)C)[nH]4)ccc32)[nH]1)C(C)C` (stereo not given in full) registered an AUC in data set [1] of 6.2 µM·h. For the same compound, the EC50 in data set [2] was 0.007 nM; in [4] it was 23 nM; in data set [6], 0.03 nM; in data set [8] it was 0.09 nM; in [10], 0.003 nM; in [11] it was 0.003 nM. The same compound came in with a Cmax in data set [3] of 990 nM. The same compound showed a bioavailability in data set [5] of 26%. The clearance in data set [7] was determined as 8.5 mL/min/kg. In data set [9], this compound gave a half-life of 2.2 h.
Take `CCC1Oc2cc(-c3cnc([C@@H]4CCCN4C(=O)[C@@H](NC(=O)OC)C(C)C)[nH]3)ccc2-c2cc3cc(-c4cnc([C@@H]5CCCN5C(=O)[C@@H](NC(=O)OC)C(C)C)[nH]4)ccc3n21` (stereo not given in full): the concentration in data set [12] peaked (Cmax) at 1220 nM. For the same compound, the EC50 in [2] amounted to 0.001 nM; in data set [4], 2 nM; in data set [6] it was 0.04 nM; in data set [8], 0.3 nM; in data set [10], 0.002 nM; in [11], 0.002 nM. In addition, in data set [13], the clearance was 5.2 mL/min/kg. In addition, in data set [14], the AUC was 8.4 µM·h. The bioavailability in data set [15] was found to be 43%. Besides, the half-life in data set [16] was 3.6 h.
For `COC(=O)N[C@H](C(=O)N1CCC[C@H]1c1ncc(-c2ccc3c(c2)OCn2c-3cc3cc(-c4cnc([C@@H]5CCCN5C(=O)[C@@H](NC(=O)OC)C(C)C)[nH]4)ccc32)[nH]1)C(C)C`, the 50% effective concentration (EC50) in data set [17] was determined as 0.5 nM; in [18], 31 nM; in [19], 0.01 nM; in [20], 0.06 nM; in [21], 0.007 nM; at Nonstructural protein 5A [22], 3 nM. Also, the EC50 was found to be 100 nM at Nonstructural protein 5A [23] and 0.008 nM in data set [24].
In the case of `COC(=O)N[C@H](C(=O)N1CCC[C@H]1c1ncc(-c2ccc3c(c2)OC(CC(C)(C)C)n2c-3cc3cc(-c4cnc([C@@H]5CCCN5C(=O)[C@@H](NC(=O)OC)C(C)C)[nH]4)ccc32)[nH]1)C(C)C` (stereo not given in full), the EC50 in [2] amounted to 1 nM; in [4], 73 nM; in [6], 0.02 nM; in data set [8], 7 nM; in [10] it was 0.004 nM; in data set [11], 0.002 nM.
For `COC(=O)N[C@H](C(=O)N1CCC[C@H]1c1nc(-c2ccc3c(c2)O[C@@H](c2ccccc2)n2c-3cc3cc(-c4c[nH]c([C@@H]5CCCN5C(=O)[C@@H](NC(=O)OC)C(C)C)n4)ccc32)c[nH]1)C(C)C` [ELBASVIR], the EC50 in [17] turned out to be 0.02 nM; in data set [18], 3 nM; in data set [19], 0.004 nM; in data set [20], 0.003 nM; in data set [21], 0.003 nM; on Nonstructural protein 5A [22], 0.5 nM. The concentration for a half-maximal effect (EC50) worked out at 2 nM at Nonstructural protein 5A [23] and 0.003 nM in [24].
In the case of `COC(=O)N[C@H](C(=O)N1CCC[C@H]1c1ncc(-c2ccc3c(c2)OC(C2CCC2)n2c-3cc3cc(-c4cnc([C@@H]5CCCN5C(=O)[C@@H](NC(=O)OC)C(C)C)[nH]4)ccc32)[nH]1)C(C)C` (mixture of isomers), the EC50 in [2] was determined as 0.006 nM; in [4], 9 nM; in [6], 0.06 nM; in [8], 1 nM; in data set [10], 0.008 nM; in data set [11] it was 0.005 nM.
`COC(=O)N[C@H](C(=O)N1CCC[C@H]1c1ncc(-c2ccc3c(c2)OC(C2CC2)n2c-3cc3cc(-c4cnc([C@@H]5CCCN5C(=O)[C@@H](NC(=O)OC)C(C)C)[nH]4)ccc32)[nH]1)C(C)C` (stereo not given in full) displayed a Cmax in data set [12] of 740 nM. Further, the EC50 in data set [2] was determined as 0.002 nM; in data set [4], 1 nM; in data set [6] it was 0.02 nM; in data set [8], 0.1 nM; in [10] it was 0.003 nM; in data set [11] it was 0.004 nM. The compound also yielded a clearance in data set [13] of 6.2 mL/min/kg. In data set [14], the AUC stood at 4.4 µM·h. Further, the bioavailability in [15] amounted to 27%. Further, the half-life in data set [16] was 3.4 h.
Regarding `COC(=O)N[C@H](C(=O)N1CCC[C@H]1c1ncc(-c2ccc3c(c2)OC(C(C)C)n2c-3cc3cc(-c4cnc([C@@H]5CCCN5C(=O)[C@@H](NC(=O)OC)C(C)C)[nH]4)ccc32)[nH]1)C(C)C` (stereo not given in full), the EC50 in data set [2] was 0.01 nM; in [4], 6 nM; in [6], 0.02 nM; in data set [8], 0.8 nM; in data set [10] it was 0.002 nM; in data set [11] it was 0.002 nM.
`COC(=O)N[C@H](C(=O)N1CCC[C@H]1c1ncc(-c2ccc3c(c2)OC(CC(C)C)n2c-3cc3cc(-c4cnc([C@@H]5CCCN5C(=O)[C@@H](NC(=O)OC)C(C)C)[nH]4)ccc32)[nH]1)C(C)C` (mixture of isomers): the EC50 was determined as 0.008 nM in [2]; 10 nM in data set [4]; 0.02 nM in data set [6]; 0.4 nM in data set [8]; 0.0008 nM in data set [10]; 0.0007 nM in data set [11].
`COC(=O)N[C@H](C(=O)N1CCC[C@H]1c1ncc(-c2ccc3c(c2)OC(C2CCCCC2)n2c-3cc3cc(-c4cnc([C@@H]5CCCN5C(=O)[C@@H](NC(=O)OC)C(C)C)[nH]4)ccc32)[nH]1)C(C)C` (stereo not given in full): the EC50 in data set [2] was found to be 0.003 nM; in data set [4], 1 nM; in data set [6], 0.04 nM; in data set [8], 0.8 nM; in data set [10], 0.005 nM; in data set [11], 0.002 nM.
In the case of `COC(=O)N[C@H](C(=O)N1CCC[C@H]1c1ncc(-c2ccc3c(c2)OC(C2CCC(F)(F)CC2)n2c-3cc3cc(-c4cnc([C@@H]5CCCN5C(=O)[C@@H](NC(=O)OC)C(C)C)[nH]4)ccc32)[nH]1)C(C)C` (mixture of isomers), the EC50 amounted to 0.007 nM in [2]; 4 nM in [4]; 0.07 nM in data set [6]; 0.8 nM in [8]; 0.002 nM in [10]; 0.0008 nM in data set [11].
